Data on one compound can be found in publication PMC6218510, “Step Sizes and Rate Constants of Single-headed Cytoplasmic Dynein Measured with Optical Tweezers” (Scientific Reports, 2018).

Each structure is given as a SMILES string.

The target of assay [1] is T1, D384GB (D384 with GFP at the linker N-terminus and BFP in AAA2) (Homo sapiens, UniProt Q14204).
T1 construct: gene DYNC1H1; Gly1288-Glu4646; N-terminal FLAG, BCCP and AcGFP kept; BFP inserted between Glu2404 and Gly2405 (AAA2); Sf9; monomer
T1 sequence (Q14204 1288-2404): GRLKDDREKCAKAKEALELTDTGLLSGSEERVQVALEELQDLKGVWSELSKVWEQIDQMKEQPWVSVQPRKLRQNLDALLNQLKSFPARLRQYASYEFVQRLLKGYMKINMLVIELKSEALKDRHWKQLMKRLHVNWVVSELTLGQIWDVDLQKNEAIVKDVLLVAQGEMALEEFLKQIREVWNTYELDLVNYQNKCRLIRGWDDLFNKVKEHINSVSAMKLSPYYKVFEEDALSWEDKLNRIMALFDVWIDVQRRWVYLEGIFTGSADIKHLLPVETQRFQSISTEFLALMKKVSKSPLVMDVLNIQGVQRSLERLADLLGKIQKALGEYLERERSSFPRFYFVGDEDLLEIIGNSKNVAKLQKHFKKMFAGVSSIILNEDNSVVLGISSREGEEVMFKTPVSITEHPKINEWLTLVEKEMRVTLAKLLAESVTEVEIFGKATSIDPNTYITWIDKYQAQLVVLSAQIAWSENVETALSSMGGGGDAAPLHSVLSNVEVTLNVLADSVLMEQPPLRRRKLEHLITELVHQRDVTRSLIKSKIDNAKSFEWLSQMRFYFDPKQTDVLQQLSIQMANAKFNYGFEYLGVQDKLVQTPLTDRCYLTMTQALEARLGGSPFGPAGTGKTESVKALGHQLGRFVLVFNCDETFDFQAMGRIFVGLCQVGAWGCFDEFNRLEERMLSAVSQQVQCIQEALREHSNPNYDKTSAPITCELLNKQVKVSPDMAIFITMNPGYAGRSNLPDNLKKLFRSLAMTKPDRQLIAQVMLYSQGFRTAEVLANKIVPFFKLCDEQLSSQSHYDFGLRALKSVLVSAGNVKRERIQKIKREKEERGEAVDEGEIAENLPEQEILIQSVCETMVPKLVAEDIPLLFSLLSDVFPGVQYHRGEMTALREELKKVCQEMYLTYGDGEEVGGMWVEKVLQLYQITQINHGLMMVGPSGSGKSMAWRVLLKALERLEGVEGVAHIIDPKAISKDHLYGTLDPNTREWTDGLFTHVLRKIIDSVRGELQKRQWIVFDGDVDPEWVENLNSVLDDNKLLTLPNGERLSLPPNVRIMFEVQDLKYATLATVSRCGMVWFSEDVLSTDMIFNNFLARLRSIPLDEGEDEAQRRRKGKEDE
T1 sequence (Q14204 2405-4646): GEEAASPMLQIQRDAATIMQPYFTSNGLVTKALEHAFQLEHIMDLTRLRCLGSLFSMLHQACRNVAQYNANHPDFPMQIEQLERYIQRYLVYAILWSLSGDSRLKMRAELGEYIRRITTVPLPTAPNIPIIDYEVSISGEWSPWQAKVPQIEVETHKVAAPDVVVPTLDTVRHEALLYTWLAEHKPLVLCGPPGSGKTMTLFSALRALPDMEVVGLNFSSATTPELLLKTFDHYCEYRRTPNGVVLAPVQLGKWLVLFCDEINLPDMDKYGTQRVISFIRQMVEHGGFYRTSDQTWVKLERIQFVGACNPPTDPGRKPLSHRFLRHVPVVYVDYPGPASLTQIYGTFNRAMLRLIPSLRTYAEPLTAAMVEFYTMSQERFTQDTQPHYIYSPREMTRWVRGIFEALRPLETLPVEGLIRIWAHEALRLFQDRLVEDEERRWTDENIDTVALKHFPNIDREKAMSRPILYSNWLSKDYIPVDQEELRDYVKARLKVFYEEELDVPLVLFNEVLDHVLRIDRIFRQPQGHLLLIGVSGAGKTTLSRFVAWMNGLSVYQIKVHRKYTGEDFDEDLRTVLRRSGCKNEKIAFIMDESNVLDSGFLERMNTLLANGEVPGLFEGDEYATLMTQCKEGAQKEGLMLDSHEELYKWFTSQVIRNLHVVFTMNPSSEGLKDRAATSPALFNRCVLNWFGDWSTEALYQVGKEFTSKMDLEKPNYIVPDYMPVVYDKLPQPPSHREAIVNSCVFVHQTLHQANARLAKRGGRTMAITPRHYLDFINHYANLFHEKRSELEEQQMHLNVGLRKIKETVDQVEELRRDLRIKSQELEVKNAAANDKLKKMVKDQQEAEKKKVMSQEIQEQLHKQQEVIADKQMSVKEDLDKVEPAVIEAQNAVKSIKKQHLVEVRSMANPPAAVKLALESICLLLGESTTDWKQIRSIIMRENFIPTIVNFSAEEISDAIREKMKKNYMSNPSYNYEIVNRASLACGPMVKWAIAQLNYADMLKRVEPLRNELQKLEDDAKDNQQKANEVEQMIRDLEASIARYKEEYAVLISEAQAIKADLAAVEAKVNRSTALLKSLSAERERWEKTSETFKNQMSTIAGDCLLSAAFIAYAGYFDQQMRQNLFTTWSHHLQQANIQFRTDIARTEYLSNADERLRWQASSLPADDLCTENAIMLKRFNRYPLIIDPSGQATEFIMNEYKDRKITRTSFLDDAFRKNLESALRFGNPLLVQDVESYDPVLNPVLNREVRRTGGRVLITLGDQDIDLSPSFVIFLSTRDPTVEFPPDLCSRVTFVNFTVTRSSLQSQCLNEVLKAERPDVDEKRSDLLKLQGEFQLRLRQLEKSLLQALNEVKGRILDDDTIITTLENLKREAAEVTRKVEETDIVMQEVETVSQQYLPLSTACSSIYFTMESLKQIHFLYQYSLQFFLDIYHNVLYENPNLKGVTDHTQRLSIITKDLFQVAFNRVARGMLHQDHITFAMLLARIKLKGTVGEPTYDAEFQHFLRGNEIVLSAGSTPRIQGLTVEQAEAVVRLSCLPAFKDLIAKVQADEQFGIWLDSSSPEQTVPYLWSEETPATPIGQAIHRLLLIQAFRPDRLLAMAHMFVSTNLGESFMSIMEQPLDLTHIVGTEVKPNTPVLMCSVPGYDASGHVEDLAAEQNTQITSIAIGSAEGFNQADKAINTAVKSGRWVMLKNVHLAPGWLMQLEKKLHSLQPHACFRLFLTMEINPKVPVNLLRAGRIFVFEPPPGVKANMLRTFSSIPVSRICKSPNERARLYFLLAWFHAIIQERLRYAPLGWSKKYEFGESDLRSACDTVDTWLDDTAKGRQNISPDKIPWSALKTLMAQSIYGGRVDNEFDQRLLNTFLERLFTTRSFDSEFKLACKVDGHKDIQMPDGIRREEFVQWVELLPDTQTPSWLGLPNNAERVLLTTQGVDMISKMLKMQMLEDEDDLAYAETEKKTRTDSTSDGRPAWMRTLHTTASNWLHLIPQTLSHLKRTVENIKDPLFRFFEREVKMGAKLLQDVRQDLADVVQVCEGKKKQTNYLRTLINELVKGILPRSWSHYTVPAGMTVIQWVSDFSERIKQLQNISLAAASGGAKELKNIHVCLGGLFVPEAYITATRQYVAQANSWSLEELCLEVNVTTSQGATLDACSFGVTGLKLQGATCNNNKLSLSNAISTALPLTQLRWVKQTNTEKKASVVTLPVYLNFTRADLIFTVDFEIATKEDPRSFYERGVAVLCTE
The assay is described as follows: ATPase assay, phosphate release (EnzChek, absorbance […] nm). In kind it is biochemical. The settings on record: basal, no microtubules; 25 °C; read-out: Michaelis-Menten constant.

Assay [2] has as its target T1, D384GB (D384 with GFP at the linker N-terminus and BFP in AAA2). Put plainly: BFP-GFP FRET efficiency of linker swing against ATP, steady state. In kind it is biochemical. The settings on record: no microtubules; ATP-regenerating system (creatine phosphate / creatine phosphate kinase); 100 nM dynein; conformational read-out, not a turnover Km; read-out: Km^E (k1/kT).

On to `Nc1ncnc2c1ncn2[C@@H]1O[C@H](COP(=O)(O)OP(=O)(O)OP(=O)(O)O)[C@@H](O)[C@H]1O` [ATP], for which the Km in assay [1] worked out at 27 ± 3 µM; in assay [2], 3.3 ± 0.3 µM.
